What all share (test): relative viability (nuclei count vs DMSO), 5 days (fraction); higher = more cells survive
Compound in the experiment “Decitabine + Bortezomib”: Nc1ncn([C@H]2C[C@H](O)[C@@H](CO)O2)c(=O)n1 [Decitabine] + CC(C)C[C@H](NC(=O)[C@H](Cc1ccccc1)NC(=O)c1cnccn1)B(O)O [Bortezomib] (partner 0.002 µM)
The method, boiled down: (§1)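 Relative viability is defined as nuclei in treated wells over nuclei in vehicle wells. Duplicate plates were run and medians reported. Lung cancer cell lines in 1536-well plates were dosed by pin tool one day after seeding, with one drug or with a fixed anchor-drug dose plus five library-drug doses (not always all listed) in √10 steps, and nuclei were counted after 5 days.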

Compound in experiment [1]: O=C(C[C@H]1NCCC[C@@H]1O)Cn1cnc2cc(Br)c(Cl)cc2c1=O (racemic) [Halofuginone] + O=C(CCCCCCC(=O)Nc1ccccc1)NO [Vorinostat] (partner 1 µM)
The method, boiled down: as §1

Compound in the experiment “Cediranib + Crizotinib”: COc1cc2c(Oc3ccc4[nH]c(C)cc4c3F)ncnc2cc1OCCCN1CCCC1 [Cediranib] + C[C@@H](Oc1cc(-c2cnn(C3CCNCC3)c2)cnc1N)c1c(Cl)ccc(F)c1Cl [Crizotinib] (partner 1 µM)
In a few lines: as §1

Compound in experiment [2]: O=C(C[C@H]1NCCC[C@@H]1O)Cn1cnc2cc(Br)c(Cl)cc2c1=O (racemic) [Halofuginone] + N=C(N)NC(=N)NCCc1ccccc1 [Phenformin] (partner 250 µM)
In a few lines: as §1

On to UMC-11, for which the relative viability worked out at 0.681 with Decitabine + Bortezomib (first compound 0.04 µM); 0.58 with Decitabine + Bortezomib (first compound 0.1265 µM); 0.31 in the experiment with Decitabine + Bortezomib (first compound 0.4 µM); 0.275 in the experiment with Decitabine + Bortezomib (first compound 1.265 µM); 0.252 with Decitabine + Bortezomib (first compound 4 µM); 0.428 in experiment [1] (first compound 0.001 µM). Moreover, the relative viability in experiment [1] (first compound 0.003162 µM) was determined as 0.381; in experiment [1] (first compound 0.01 µM) it was 0.348; in experiment [1] (first compound 0.03162 µM), 0.334; in experiment [1] (first compound 0.1 µM), 0.205; with Cediranib + Crizotinib (first compound 0.04 µM), 0.612; with Cediranib + Crizotinib (first compound 0.1265 µM), 0.573. Besides, the relative viability with Cediranib + Crizotinib (first compound 0.4 µM) was 0.512; in the experiment with Cediranib + Crizotinib (first compound 1.265 µM), 0.656; in the experiment with Cediranib + Crizotinib (first compound 4 µM) it was 0.427; in experiment [2] (first compound 0.001 µM) it was 0.345; in experiment [2] (first compound 0.003162 µM), 0.343; in experiment [2] (first compound 0.01 µM), 0.324. For the same cell line, the relative viability in experiment [2] (first compound 0.03162 µM) was determined as 0.316; in experiment [2] (first compound 0.1 µM) it was 0.267.

Source of the values: the supplement of paper PMC10307832.
